In US20250255883A1, “Compositions and Methods for Treating Aging Hair” (CHL Industries, LLC, priority 2021, published 2025):

System: Normal human keratinocytes (HEKa)
Experiment: Real-time quantitative PCR gene expression in normal human keratinocytes treated for 24 hours
Type: cell-based

## C=CC1=C(C)C2=CC3=NC(=C(CC(=O)[O-])C4=NC(=C(C)C4=C([O-])[O-])C=c4[n-]c(c(C)c4CC)=CC1=N2)[C@@H](CCC(=O)[O-])[C@@H]3C.[Cu+2].[Na+].[Na+].[Na+] [TCCE6, trisodium copper (II) chlorin e6]
Gene 18S (housekeeping), 20 ug/mL, vs. water-treated control
  Fold Up- or Down-Regulation 18S: 1.1 Fold
Gene AQP3, 20 ug/mL, vs. water-treated control
  Fold Up- or Down-Regulation AQP3: 1.7 Fold
Gene AREL1, 20 ug/mL, vs. water-treated control
  Fold Up- or Down-Regulation AREL1: −1.0 Fold
Gene ARRDC3, 20 ug/mL, vs. water-treated control
  Fold Up- or Down-Regulation ARRDC3: 6.1 Fold
Gene BAMBI, 20 ug/mL, vs. water-treated control
  Fold Up- or Down-Regulation BAMBI: 6.2 Fold
Gene CCL20, 20 ug/mL, vs. water-treated control
  Fold Up- or Down-Regulation CCL20: 1.3 Fold
Gene CDKN1A, 20 ug/mL, vs. water-treated control
  Fold Up- or Down-Regulation CDKN1A: 1.5 Fold
Gene CSF1, 20 ug/mL, vs. water-treated control
  Fold Up- or Down-Regulation CSF1: −1.3 Fold
Gene CSF2, 20 ug/mL, vs. water-treated control
  Fold Up- or Down-Regulation CSF2: −1.2 Fold
Gene CXCL1, 20 ug/mL, vs. water-treated control
  Fold Up- or Down-Regulation CXCL1: 1.6 Fold
Gene CXCL2, 20 ug/mL, vs. water-treated control
  Fold Up- or Down-Regulation CXCL2: 1.2 Fold
Gene CXCL3, 20 ug/mL, vs. water-treated control
  Fold Up- or Down-Regulation CXCL3: 1.7 Fold
Gene CXCL8, 20 ug/mL, vs. water-treated control
  Fold Up- or Down-Regulation CXCL8: 1.1 Fold
Gene CXCL10, 20 ug/mL, vs. water-treated control
  Fold Up- or Down-Regulation CXCL10: 2.0 Fold
Gene CYB561, 20 ug/mL, vs. water-treated control
  Fold Up- or Down-Regulation CYB561: −1.1 Fold
Gene CYP1A1, 20 ug/mL, vs. water-treated control
  Fold Up- or Down-Regulation CYP1A1: −1.8 Fold
Gene DDX5, 20 ug/mL, vs. water-treated control
  Fold Up- or Down-Regulation DDX5: 1.0 Fold
Gene DEFB1, 20 ug/mL, vs. water-treated control
  Fold Up- or Down-Regulation DEFB1: 2.2 Fold
Gene EPGN, 20 ug/mL, vs. water-treated control
  Fold Up- or Down-Regulation EPGN: 2.3 Fold
Gene FGF2, 20 ug/mL, vs. water-treated control
  Fold Up- or Down-Regulation FGF2: −1.2 Fold
Gene FOS, 20 ug/mL, vs. water-treated control
  Fold Up- or Down-Regulation FOS: 3.7 Fold
Gene G2E3, 20 ug/mL, vs. water-treated control
  Fold Up- or Down-Regulation G2E3: −1.2 Fold
Gene GDF15, 20 ug/mL, vs. water-treated control
  Fold Up- or Down-Regulation GDF15: 1.9 Fold
Gene GPADH (housekeeping), 20 ug/mL, vs. water-treated control
  Fold Up- or Down-Regulation GPADH: −1.2 Fold
Gene GPX2, 20 ug/mL, vs. water-treated control
  Fold Up- or Down-Regulation GPX2: −1.1 Fold
Gene HBEGF, 20 ug/mL, vs. water-treated control
  Fold Up- or Down-Regulation HBEGF: 2.5 Fold
Gene HECTD1, 20 ug/mL, vs. water-treated control
  Fold Up- or Down-Regulation HECTD1: −1.0 Fold
Gene HERC1, 20 ug/mL, vs. water-treated control
  Fold Up- or Down-Regulation HERC1: 1.1 Fold
Gene HIF1AN, 20 ug/mL, vs. water-treated control
  Fold Up- or Down-Regulation HIF1AN: −1.3 Fold
Gene HPRT1 (housekeeping), 20 ug/mL, vs. water-treated control
  Fold Up- or Down-Regulation HPRT1: 1.0 Fold
Gene HSP90B1, 20 ug/mL, vs. water-treated control
  Fold Up- or Down-Regulation HSP90B1: 1.4 Fold
Gene IFI44L, 20 ug/mL, vs. water-treated control
  Fold Up- or Down-Regulation IFI44L: −2.5 Fold
Gene JUN, 20 ug/mL, vs. water-treated control
  Fold Up- or Down-Regulation JUN: 1.2 Fold
Gene JUNB, 20 ug/mL, vs. water-treated control
  Fold Up- or Down-Regulation JUNB: 1.9 Fold
Gene LTB4R, 20 ug/mL, vs. water-treated control
  Fold Up- or Down-Regulation LTB4R: 1.1 Fold
Gene MAFF, 20 ug/mL, vs. water-treated control
  Fold Up- or Down-Regulation MAFF: 2.2 Fold
Gene MAP1LC3B, 20 ug/mL, vs. water-treated control
  Fold Up- or Down-Regulation MAP1LC3B: 1.5 Fold
Gene MAPK14, 20 ug/mL, vs. water-treated control
  Fold Up- or Down-Regulation MAPK14: −1.1 Fold
Gene MGAT1, 20 ug/mL, vs. water-treated control
  Fold Up- or Down-Regulation MGAT1: −1.7 Fold
Gene MGAT5, 20 ug/mL, vs. water-treated control
  Fold Up- or Down-Regulation MGAT5: 1.2 Fold
Gene MOGS, 20 ug/mL, vs. water-treated control
  Fold Up- or Down-Regulation MOGS: −1.3 Fold
Gene N4BP1, 20 ug/mL, vs. water-treated control
  Fold Up- or Down-Regulation N4BP1: 1.3 Fold
Gene NFKBIA, 20 ug/mL, vs. water-treated control
  Fold Up- or Down-Regulation NFKBIA: 1.3 Fold
Gene PELI1, 20 ug/mL, vs. water-treated control
  Fold Up- or Down-Regulation PELI1: 1.4 Fold
Gene PLAUR, 20 ug/mL, vs. water-treated control
  Fold Up- or Down-Regulation PLAUR: 9.7 Fold
Gene PPP1R15A, 20 ug/mL, vs. water-treated control
  Fold Up- or Down-Regulation PPP1R15A: 2.5 Fold
Gene PTGFRN, 20 ug/mL, vs. water-treated control
  Fold Up- or Down-Regulation PTGFRN: −2.6 Fold
Gene PTGS2, 20 ug/mL, vs. water-treated control
  Fold Up- or Down-Regulation PTGS2: 2.4 Fold
Gene PTX3, 20 ug/mL, vs. water-treated control
  Fold Up- or Down-Regulation PTX3: 1.8 Fold
Gene REL, 20 ug/mL, vs. water-treated control
  Fold Up- or Down-Regulation REL: −1.1 Fold
Gene RSAD2, 20 ug/mL, vs. water-treated control
  Fold Up- or Down-Regulation RSAD2: 1.2 Fold
Gene SAMD9L, 20 ug/mL, vs. water-treated control
  Fold Up- or Down-Regulation SAMD9L: 1.5 Fold
Gene SOD2, 20 ug/mL, vs. water-treated control
  Fold Up- or Down-Regulation SOD2: −1.4 Fold
Gene SPRR2B, 20 ug/mL, vs. water-treated control
  Fold Up- or Down-Regulation SPRR2B: 6.5 Fold
Gene TGFB1, 20 ug/mL, vs. water-treated control
  Fold Up- or Down-Regulation TGFB1: −1.2 Fold
Gene TNF, 20 ug/mL, vs. water-treated control
  Fold Up- or Down-Regulation TNF: 1.2 Fold
Gene TNFAIP3, 20 ug/mL, vs. water-treated control
  Fold Up- or Down-Regulation TNFAIP3: 2.6 Fold
Gene UBE2S, 20 ug/mL, vs. water-treated control
  Fold Up- or Down-Regulation UBE2S: −1.1 Fold
Gene UBE3B, 20 ug/mL, vs. water-treated control
  Fold Up- or Down-Regulation UBE3B: 1.4 Fold
Gene UBE4B, 20 ug/mL, vs. water-treated control
  Fold Up- or Down-Regulation UBE4B: −1.4 Fold
Gene UBE20, 20 ug/mL, vs. water-treated control
  Fold Up- or Down-Regulation UBE20: 2.5 Fold
Gene VCP, 20 ug/mL, vs. water-treated control
  Fold Up- or Down-Regulation VCP: 1.2 Fold
Gene VEGFA, 20 ug/mL, vs. water-treated control
  Fold Up- or Down-Regulation VEGFA: 2.5 Fold
Genes ARRDC3, BAMBI, CXCL10, DEFB1, EPGN, FOS, HBEGF, IFI44L, MAFF, PLAUR, PPP1R15A, PTGS2, SPRR2B, TNFAIP3, UBE20, VEGFA, 20 ug/mL
  fold value changes of significantly (p<0.05) upregulated or downregulated genes: ≥ 2.0 ×
